Test results as given in a melting point compilation (Tetko et al.; mined from patent text by program, amines drawn as free bases though some values may be those of a salt).

Question: Which melting point does the source give for `NC(=O)Cc1ccc2c(c1)C(=O)Cc1ccccc1S2` here?
Answer: 171 to 172 °C

Question: With `CC(=O)O[C@H]1CC[C@H](CCCCCCC(=O)O)CC1` as the molecule, how does the melting point read?
Answer: 66 to 68 °C

Question: Which melting point does the source give for `CN1C(=O)c2ccccc2OC1C(Cl)(Cl)Cl` (stereo not given) here?
Answer: 82 to 84 °C

Question: Which melting point does the source give for `CC(=O)N1CCC2(CC1)C(=O)N(CC(=O)Nc1c(C(C)C)cccc1C(C)C)C(=O)N2c1ccc(C)cc1` here?
Answer: 136 to 138 °C

Question: Which melting point does the source give for `CCCCCCCCCCCCC(OC)C1=CC(=O)OC1O` (stereo not given) here?
Answer: 53 to 54 °C

Question: Which melting point does the source give for `CN1CCC(c2c[nH]c3ccc(CCS(=O)(=O)N(C)C)cc23)CC1` here?
Answer: 170 to 172 °C

Question: Which melting point does the source give for `CCOC1=CCC(NC(C)=O)CC1` (stereo not given) here?
Answer: 100 to 102 °C

Question: Which melting point does the source give for `Nc1ccc(Nc2ncnc3cc(-c4ccccc4)sc23)cc1` here?
Answer: 210 to 211 °C

Question: For `COc1cc(OC)c(/C=C/S(=O)(=O)Nc2ccc(OC)c(NC(C)=O)c2)c(OC)c1`, which melting point is on record?
Answer: 296 to 298 °C

Question: For `CCOC(=O)COc1ccc(-c2nc3ncccc3[nH]2)c(O)c1`, which melting point is on record?
Answer: 198 °C

Question: Which melting point does the source give for `O=Nc1c(-c2ccccc2)nc2ccccn12` here?
Answer: 165 to 167 °C

Question: For `N#CCCCCCCn1c(-c2ccccc2)c(-c2ccccc2)n(-c2ccccc2)c1=O`, which melting point is on record?
Answer: 100 to 101 °C

Question: With `Nc1nc2ccc(CCN3CCC(Cc4ccccc4)CC3)cc2s1` as the molecule, how does the melting point read?
Answer: 152 to 153 °C

Question: With `CCOC(=O)c1c(C(F)(F)F)nc(C(F)(F)F)c(C(=O)O)c1OCC` as the molecule, how does the melting point read?
Answer: 115 to 117 °C

Question: Which melting point does the source give for `CN(C)C=C(C1=NCCCS1)[N+](=O)[O-]` here?
Answer: 168 to 170 °C

Question: Which melting point does the source give for `CCOC(=O)CCCN1CCC2(CC1)CN(c1ccc(C#N)cc1)C(=O)O2` here?
Answer: 78 to 80 °C

Question: For `O=C(CCl)Nc1cc(C(=O)O)cc(OCc2ccccc2)c1C(=O)c1ccccc1`, which melting point is on record?
Answer: 214 to 216 °C

Question: Which melting point does the source give for `O=[N+]([O-])c1ccc(C=CC=CC=CC=Cc2ccc([N+](=O)[O-])cc2)cc1` here?
Answer: 238 to 240 °C

Question: For `NC(=S)NN=C(CCCOC(=O)Nc1ccccc1)c1ccccc1`, which melting point is on record?
Answer: 140 to 142 °C

Question: For `CC(=O)c1cc([N+](=O)[O-])c(F)cc1Cl`, which melting point is on record?
Answer: 66 to 68 °C

Question: For `CCCCOC(=O)C=C(C)C=CC=C(C)C=Cc1c(C)cc(C)c([N+](=O)[O-])c1C`, which melting point is on record?
Answer: 205 to 206 °C

Question: With `C=CCOc1ccc2c(=O)c(C)c(-c3ccccc3)oc2c1C(=O)C=Cc1cc(OC)c(OC)c(OC)c1` as the molecule, how does the melting point read?
Answer: 121 to 123 °C

Question: For `CCNc1c(S(=O)C(F)(F)F)c(C)nn1-c1c(Cl)cc(C(F)(F)F)cc1Cl` (stereo not given), which melting point is on record?
Answer: 76 °C

Question: With `O=C(OCc1ccncc1)c1ccc2[nH]c(=O)n(Cc3ccc4c(c3)OCO4)c(=O)c2c1` as the molecule, how does the melting point read?
Answer: 204 °C

Question: Which melting point does the source give for `CN(C)C(=O)n1cc(C(=O)C2CSC(c3cccnc3)N2C=O)c2ccc(OCc3ccccc3)cc21` (stereo not given) here?
Answer: 90 °C

Question: Which melting point does the source give for `COCCO[C@@H]1c2ccc3c(nc(C)n3C)c2O[C@H](c2ccccc2)[C@H]1OC(=O)CN(C)C` here?
Answer: 175 °C

Question: Which melting point does the source give for `CC(C)(C)c1cc(Nc2ccccc2C=O)cc(C(C)(C)C)c1O` here?
Answer: 105 to 107 °C

Question: Which melting point does the source give for `Cc1nn(-c2ccccn2)c2nccc(O)c12` here?
Answer: 241 to 243 °C

Question: Which melting point does the source give for `CCCCOC(=O)C1Oc2ccccc2Cc2ccccc2O1` here?
Answer: 63 to 66 °C

Question: For `CCNc1nc2c(ccc3[nH]c4cnc(C(=O)OC(C)C)c(CC)c4c32)s1`, which melting point is on record?
Answer: 275 to 276 °C

Question: For `NC(=O)c1cccc(OCCCCCCBr)c1`, which melting point is on record?
Answer: 115 to 117 °C

Question: Which melting point does the source give for `COc1ccc2cc([C@H](C)C(=O)OC[C@@H]3NC(=O)[C@@H](C(C)(C)S)NC3=O)ccc2c1` here?
Answer: > 180 °C

Question: For `O=C(O)c1cc2n(c1)CCCC2`, which melting point is on record?
Answer: 131 to 134 °C

Question: Which melting point does the source give for `CC(C)[C@H](NC(=O)OCc1csc(N(C)C)n1)C(=O)N[C@@H](Cc1ccccc1)[C@@H](O)C[C@H](Cc1ccccc1)NC(=O)OCc1cncs1` here?
Answer: 157 to 159 °C

Question: With `CCN1CCC(C(=O)NO)(S(=O)(=O)c2ccc(OC)cc2)CC1` as the molecule, how does the melting point read?
Answer: 85 °C

Question: Which melting point does the source give for `CN1CCC(c2c[nH]c3ccc(NC(=N)c4cccs4)cc23)C(F)C1` (stereo not given) here?
Answer: 115 to 117 °C

Question: Which melting point does the source give for `COc1ccc2c(c1)c1c3c(c(-c4ccccc4Cl)cc1n2C(C)=O)C(=O)NC3=O` here?
Answer: 277 to 280 °C

Question: For `Cc1c(C)c(NC(=O)CC(C)(C)C)c2c(c1C)C(c1ccc(C(C)C)cc1)C(C)(C)O2` (stereo not given), which melting point is on record?
Answer: 152 to 153 °C

Question: For `O=C(O)c1nc(C2CC2)nc(Cl)c1Cl`, which melting point is on record?
Answer: 126 to 127 °C

Question: With `COc1ccc(N(CCC(=O)NCC(=O)O)C(=O)c2ccc(Cl)cc2)cc1` as the molecule, how does the melting point read?
Answer: 185 to 187 °C

Question: Which melting point does the source give for `COc1cc(C)c(Cc2cnoc2)cc1OC` here?
Answer: 68.5 to 70.5 °C

Question: With `CC1(C)CCC(C)(C)c2cc(-c3cc(-c4ccc(C(=O)O)cc4)ccc3OCCCCN)ccc21` as the molecule, how does the melting point read?
Answer: 250 °C

Question: For `COC(=O)C(O)c1ccccc1Nc1c(Cl)cccc1Cl` (stereo not given), which melting point is on record?
Answer: 123 to 124 °C

Question: For `COc1ccc(Nc2ccccc2)c2c1c(CCN(C)C)cn2C`, which melting point is on record?
Answer: 158 to 160 °C

Question: For `Cc1cc(C)cc(Nn2c(-c3ccccc3)c(C)[nH]c2=S)c1`, which melting point is on record?
Answer: 240 to 242 °C

Question: With `Cn1nc(C(F)(F)F)cc1Oc1cc(Cl)c(Cl)cc1[N+](=O)[O-]` as the molecule, how does the melting point read?
Answer: 99 to 100 °C

Question: Which melting point does the source give for `O=C(Nc1ccc(Cl)c(C(F)(F)F)c1)N[C@H]1CC[C@H](Oc2ccc(C(F)(F)F)cn2)CC1` here?
Answer: 176 to 178 °C

Question: Which melting point does the source give for `CNc1nc(-c2cccc(-c3ccc(C)c(C)c3)c2)c2cc(OC)c(OC)cc2n1` here?
Answer: 149 to 151 °C

Question: With `O=C(CBr)Nc1cccc(OC(=O)CBr)c1` as the molecule, how does the melting point read?
Answer: 96 to 98 °C

Question: With `COCCN1CCc2sc(Nc3ncc(F)c(C)n3)nc2-c2c[nH]nc21` as the molecule, how does the melting point read?
Answer: 261 to 263 °C
